Laboratory results from patent publication US9452986B2, “6-heteroaryloxy- or 6-aryloxy-quinoline-2-carboxamides and method of use” (AbbVie Inc., priority 2014, dated 2016).

Biological target: recombinant human Nav1.7 (Homo sapiens (Human), UniProt Q15858)
Experiment: FRET-based membrane potential assay, recombinant human sodium channel Nav1.7
Type: cell-based
Details: HEK293 cells stably expressing recombinant human Nav1.7; veratridine + scorpion venom depolarization; read-out: FRET-Membrane Potential Nav1.7 IC50
How it was run: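 Channel activation used veratridine at its EC80, set by a dilution curve each experiment, together with Leiurus scorpion venom, added 3 min after compound. Membrane-potential ratio signals from FLIPR Tetra in HEPES-buffered HBSS were fitted to a four-parameter Hill equation for percent inhibition and IC50.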

recombinant human Nav1.7, sequence (Q15858 whole entry): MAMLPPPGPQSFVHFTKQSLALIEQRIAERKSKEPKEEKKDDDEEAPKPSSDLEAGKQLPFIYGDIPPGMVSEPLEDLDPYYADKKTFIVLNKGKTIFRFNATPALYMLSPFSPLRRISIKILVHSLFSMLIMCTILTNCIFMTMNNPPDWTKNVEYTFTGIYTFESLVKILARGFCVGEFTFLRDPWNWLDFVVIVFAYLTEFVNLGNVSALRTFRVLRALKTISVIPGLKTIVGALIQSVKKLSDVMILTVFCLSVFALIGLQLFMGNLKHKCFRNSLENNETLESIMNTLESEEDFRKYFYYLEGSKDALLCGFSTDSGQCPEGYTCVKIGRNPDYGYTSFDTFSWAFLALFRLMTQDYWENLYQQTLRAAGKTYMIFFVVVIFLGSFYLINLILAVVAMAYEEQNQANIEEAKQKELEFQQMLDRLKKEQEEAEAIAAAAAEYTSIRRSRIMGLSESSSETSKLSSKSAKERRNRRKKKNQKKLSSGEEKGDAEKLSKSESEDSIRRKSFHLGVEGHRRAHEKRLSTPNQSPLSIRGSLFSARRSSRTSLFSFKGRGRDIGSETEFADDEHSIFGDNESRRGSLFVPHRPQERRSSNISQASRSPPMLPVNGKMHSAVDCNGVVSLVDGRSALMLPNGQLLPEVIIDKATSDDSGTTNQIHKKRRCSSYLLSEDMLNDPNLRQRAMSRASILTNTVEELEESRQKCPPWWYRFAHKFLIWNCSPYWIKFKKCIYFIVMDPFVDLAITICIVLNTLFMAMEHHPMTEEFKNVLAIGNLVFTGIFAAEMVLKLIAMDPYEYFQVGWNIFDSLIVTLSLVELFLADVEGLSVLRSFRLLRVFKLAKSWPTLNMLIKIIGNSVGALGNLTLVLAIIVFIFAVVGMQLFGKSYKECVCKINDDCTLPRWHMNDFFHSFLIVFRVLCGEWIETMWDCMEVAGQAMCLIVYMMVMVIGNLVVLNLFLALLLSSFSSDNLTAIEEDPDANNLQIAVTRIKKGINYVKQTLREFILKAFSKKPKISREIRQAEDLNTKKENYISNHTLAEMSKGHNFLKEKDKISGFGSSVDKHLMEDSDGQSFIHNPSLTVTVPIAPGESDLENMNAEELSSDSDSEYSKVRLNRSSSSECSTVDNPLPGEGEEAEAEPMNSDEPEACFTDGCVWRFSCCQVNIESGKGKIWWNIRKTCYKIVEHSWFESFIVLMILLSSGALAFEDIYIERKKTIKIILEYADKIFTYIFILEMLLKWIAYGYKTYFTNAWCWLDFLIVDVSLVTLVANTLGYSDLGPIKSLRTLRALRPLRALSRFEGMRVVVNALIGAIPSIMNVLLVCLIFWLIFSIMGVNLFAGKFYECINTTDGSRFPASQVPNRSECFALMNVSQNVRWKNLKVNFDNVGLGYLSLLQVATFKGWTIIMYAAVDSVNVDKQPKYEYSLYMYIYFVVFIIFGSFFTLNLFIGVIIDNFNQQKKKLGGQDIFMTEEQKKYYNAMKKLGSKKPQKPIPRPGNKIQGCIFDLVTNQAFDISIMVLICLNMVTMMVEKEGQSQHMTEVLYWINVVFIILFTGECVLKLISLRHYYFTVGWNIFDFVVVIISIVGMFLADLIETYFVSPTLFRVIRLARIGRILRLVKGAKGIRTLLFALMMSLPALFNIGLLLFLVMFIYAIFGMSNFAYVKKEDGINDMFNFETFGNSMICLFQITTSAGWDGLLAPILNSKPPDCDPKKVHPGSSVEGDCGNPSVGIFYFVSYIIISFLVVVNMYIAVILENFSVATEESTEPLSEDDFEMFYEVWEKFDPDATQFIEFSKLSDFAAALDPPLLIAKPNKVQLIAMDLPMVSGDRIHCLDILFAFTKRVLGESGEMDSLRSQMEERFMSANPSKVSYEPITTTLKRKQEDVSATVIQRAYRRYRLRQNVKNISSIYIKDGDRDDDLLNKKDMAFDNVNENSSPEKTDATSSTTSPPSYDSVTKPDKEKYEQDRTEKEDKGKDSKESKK

`O=C(NC1CCS(=O)(=O)C1)c1ccc2cc(Oc3ccc(Cl)nn3)ccc2n1` (stereo not shown) [Example 165, 6-[(6-chloropyridazin-3-yl)oxy]-N-(1,1-dioxidotetrahydrothiophen-3-yl)quinoline-2-carboxamide] was tested. Which IC50 did it give?
The IC50 was greater than 20 µM.

With `CC(C)NC(=O)CN(C)C(=O)c1ccc2cc(Oc3ccc(C(F)F)cn3)ccc2n1` [Example 468, 6-{[5-(difluoromethyl)pyridin-2-yl]oxy}-N-[2-(isopropylamino)-2-oxoethyl]-N-methylquinoline-2-carboxamide] as the compound, how does the IC50 read?
Its IC50 is 13.8 µM.

`O=C(c1ccc2cc(Oc3ncc(F)cn3)ccc2n1)N1CCNCC1` [Example 244, {6[(5-fluoropyrimidin-2-yl)oxy]quinolin-2-yl}(piperazin-1-yl)methanone] was tested. Which IC50 did it give?
Its IC50 is greater than 20 µM.

For `N#Cc1ccc(Oc2ccc3nc(C(=O)NCCN4CCCC4)ccc3c2)cc1` [Example 96, 6-(4-cyanophenoxy)-N-[2-(pyrrolidin-1-yl)ethyl]quinoline-2-carboxamide], which IC50 is on record?
The IC50 was 0.329 µM.

For `CC(=O)Nc1nc(C)c(S(=O)(=O)N2CCN(C(=O)c3ccc4cc(Oc5ccc(C(F)(F)F)cn5)ccc4n3)CC2)s1` [Example 388, N-[4-methyl-5-({4-[(6-{[5-(trifluoromethyl)pyridin-2-yl]oxy}quinolin-2-yl)carbonyl]piperazin-1-yl}sulfonyl)-1,3-thiazol-2-yl]acetamide], which IC50 is on record?
Its IC50 is greater than 20 µM.

For `O=C(c1ccc2cc(Oc3ccc(C(F)(F)F)cn3)ccc2n1)N1CCC(N2C[C@H]3C[C@@H]2CO3)CC1` [Example 378, {4-[(1R,4R)-2-oxa-5-azabicyclo[2.2.1]hept-5-yl]piperidin-1-yl}(6-{[5-(trifluoromethyl)pyridin-2-yl]oxy}quinolin-2-yl)methanone], which IC50 is on record?
Its IC50 is 2.23 µM.

Which IC50 does the source give for `N#Cc1ccc(Oc2ccc3nc(C(=O)N[C@H]4CCC[C@H](O)C4)ccc3c2)cc1` [Example 132, 6-(4-cyanophenoxy)-N-[(1S,3S)-3-hydroxycyclohexyl]quinoline-2-carboxamide] here?
Its IC50 is 2.7 µM.

Which IC50 does the source give for `O=C(NCc1ccccn1)c1ccc2cc(Oc3ccc(C(F)(F)F)cn3)ccc2n1` [Example 151, N-(pyridin-2-ylmethyl)-6-{[5-(trifluoromethyl)pyridin-2-yl]oxy}quinoline-2-carboxamide] here?
Its IC50 is 0.792 µM.

How did the IC50 turn out when `N[C@@H]1CCN(C(=O)c2ccc3cc(Oc4ccc(C(F)(F)F)cn4)ccc3n2)C1` [Example 310, [(3R)-3-aminopyrrolidin-1-yl](6-{[5-(trifluoromethyl)pyridin-2-yl]oxy}quinolin-2-yl)methanone] was run?
The IC50 was 0.665 µM.

Which IC50 does the source give for `CC(C)(O)CNC(=O)c1ccc2cc(Oc3ccc(C#N)cc3)ccc2n1` [Example 122, 6-(4-cyanophenoxy)-N-(2-hydroxy-2-methylpropyl)quinoline-2-carboxamide] here?
The IC50 was 2.49 µM.

For `O=C(c1ccc2cc(Oc3ccc(C(F)(F)F)cn3)ccc2n1)N1CC[C@H](O)C1` [Example 283, [(3S)-3-hydroxypyrrolidin-1-yl](6-{[5-(trifluoromethyl)pyridin-2-yl]oxy}quinolin-2-yl)methanone], which IC50 is on record?
The IC50 was 10.9 µM.

With `O=C1NCCN2CCN(C(=O)c3ccc4cc(Oc5ccc(C(F)(F)F)cn5)ccc4n3)CC12` (stereo not shown) [Example 169, 8-[(6-{[5-(trifluoromethyl)pyridin-2-yl]oxy}quinolin-2-yl)carbonyl]hexahydro-2H-pyrazino[1,2-a]pyrazin-1(6H)-one] as the compound, how does the IC50 read?
Its IC50 is 17.2 µM.

How did the IC50 turn out when `COCCN(CCOC)C(=O)c1ccc2cc(Oc3ccc(C(F)(F)F)cn3)ccc2n1` [Example 379, N,N-bis(2-methoxyethyl)-6-{[5-(trifluoromethyl)pyridin-2-yl]oxy}quinoline-2-carboxamide] was run?
Its IC50 is 3.39 µM.

Which IC50 does the source give for `O=C(c1ccc2cc(Oc3ccc(C(F)(F)F)cn3)ccc2n1)N1CCNCC(O)C1` (stereo not shown) [Example 407, (6-hydroxy-1,4-diazepan-1-yl)(6-{[5-(trifluoromethyl)pyridin-2-yl]oxy}quinolin-2-yl)methanone] here?
The IC50 was 3.81 µM.

For `O=C(NCC1CS(=O)(=O)C1)c1ccc2cc(Oc3ccc(C(F)(F)F)cn3)ccc2n1` [Example 602, N-[(1,1-dioxidothietan-3-yl)methyl]-6-{[5-(trifluoromethyl)pyridin-2-yl]oxy}quinoline-2-carboxamide], which IC50 is on record?
The IC50 was 1.07 µM.

How did the IC50 turn out when `N#Cc1ccc(Oc2ccc3nc(C(=O)NC(CO)CO)ccc3c2)cc1` [Example 126, 6-(4-cyanophenoxy)-N-(1,3-dihydroxypropan-2-yl)quinoline-2-carboxamide] was run?
Its IC50 is 8.76 µM.

How did the IC50 turn out when `N#Cc1ccc(Oc2ccc3nc(C(=O)Nc4nccs4)ccc3c2)cc1` [Example 88, 6-(4-cyanophenoxy)-N-(1,3-thiazol-2-yl)quinoline-2-carboxamide] was run?
The IC50 was greater than 20 µM.

`O=C(c1ccc2cc(Oc3ccc(C(F)(F)F)nc3)ccc2n1)N1CC[C@H](F)C1` [Example 550, [(3S)-3-fluoropyrrolidin-1-yl](6-{[6-(trifluoromethyl)pyridin-3-yl]oxy}quinolin-2-yl)methanone] was tested. Which IC50 did it give?
The IC50 was 10.7 µM.

`O=C(NCC1(O)CCC1)c1ccc2cc(Oc3ccc(C(F)(F)F)cn3)ccc2n1` [Example 336, N-[(1-hydroxycyclobutyl)methyl]-6-{[5-(trifluoromethyl)pyridin-2-yl]oxy}quinoline-2-carboxamide] was tested. Which IC50 did it give?
Its IC50 is 0.439 µM.

Which IC50 does the source give for `N#Cc1ccc(Oc2ccc3nc(C(=O)NCc4cccnc4)ccc3c2)cc1` [Example 89, 6-(4-cyanophenoxy)-N-(pyridin-3-ylmethyl)quinoline-2-carboxamide] here?
Its IC50 is 1.52 µM.

For `COc1cccc(CNC(=O)c2ccc3cc(Oc4ccc(C#N)cc4)ccc3n2)c1OC` [Example 105, 6-(4-cyanophenoxy)-N-(2,3-dimethoxybenzyl)quinoline-2-carboxamide], which IC50 is on record?
Its IC50 is 7.25 µM.

For `O=C(c1ccc2cc(Oc3ccc(C(F)(F)F)cn3)ccc2n1)N1CCC(CO)C1` (stereo not shown) [Example 266, [3-(hydroxymethyl)pyrrolidin-1-yl](6-{[5-(trifluoromethyl)pyridin-2-yl]oxy}quinolin-2-yl)methanone], which IC50 is on record?
The IC50 was 5.76 µM.

`CN1CCN(C(=O)c2ccc3cc(Oc4ccc(C(F)F)cn4)ccc3n2)CC1=O` [Example 464, 4-[(6-{[5-(difluoromethyl)pyridin-2-yl]oxy}quinolin-2-yl)carbonyl]-1-methylpiperazin-2-one] was tested. Which IC50 did it give?
The IC50 was greater than 20 µM.

How did the IC50 turn out when `O=C(c1ccc2cc(Oc3ccc(C(F)(F)F)cn3)ccc2n1)N1C[C@@H]2C[C@@H](CO)[C@H]1C2` [Example 257, [(1R,4R,6R)-6-(hydroxymethyl)-2-azabicyclo[2.2.1]hept-2-yl](6-{[5-(trifluoromethyl)pyridin-2-yl]oxy}quinolin-2-yl)methanone] was run?
The IC50 was 10.6 µM.

Same assay, conditions: read-out: FRET-Membrane Potential Nav1.7 IC50

How did the IC50 turn out when `O=C(N[C@@H]1CCNC1)c1ccc2cc(Oc3ccc(C(F)(F)F)cn3)ccc2n1` [Example 331, N-[(3R)-pyrrolidin-3-yl]-6-{[5-(trifluoromethyl)pyridin-2-yl]oxy}quinoline-2-carboxamide] was run?
Its IC50 is 2.64 µM.

With `O=C(c1ccc2cc(Oc3ccc(C(F)(F)F)cn3)ccc2n1)N1CCc2[nH]cnc2C1` [Example 360, 1,4,6,7-tetrahydro-5H-imidazo[4,5-c]pyridin-5-yl(6-{[5-(trifluoromethyl)pyridin-2-yl]oxy}quinolin-2-yl)methanone] as the compound, how does the IC50 read?
Its IC50 is 1.09 µM.

Which IC50 does the source give for `CCNS(=O)(=O)N1CCN(C(=O)c2ccc3cc(Oc4ccc(C(F)(F)F)cn4)ccc3n2)CC1` [Example 236, N-ethyl-4-[(6-{[5-(trifluoromethyl)pyridin-2-yl]oxy}quinolin-2-yl)carbonyl]piperazine-1-sulfonamide] here?
The IC50 was 1.01 µM.

With `N[C@@H]1CCN(C(=O)c2ccc3cc(Oc4ccc(C(F)(F)F)cn4)ccc3n2)C[C@H]1F` [Example 583, [(3R,4R)-4-amino-3-fluoropiperidin-1-yl](6-{[5-(trifluoromethyl)pyridin-2-yl]oxy}quinolin-2-yl)methanone] as the compound, how does the IC50 read?
Its IC50 is 0.96 µM.

How did the IC50 turn out when `O=C(c1ccc2cc(Oc3ccc(C(F)(F)F)cn3)ccc2n1)N1CCN2C[C@@H](F)C[C@@H]2C1` [Example 356, [(7S,8aR)-7-fluorohexahydropyrrolo[1,2-a]pyrazin-2(1H)-yl](6-{[5-(trifluoromethyl)pyridin-2-yl]oxy}quinolin-2-yl)methanone] was run?
The IC50 was 3.36 µM.

Which IC50 does the source give for `N#Cc1ccc(Oc2ccc3nc(C(=O)Nc4ccc5cn[nH]c5c4)ccc3c2)cc1` [Example 84, 6-(4-cyanophenoxy)-N-(1H-indazol-6-yl)quinoline-2-carboxamide] here?
Its IC50 is greater than 20 µM.

For `CO[C@H]1CCN(C(=O)c2ccc3cc(Oc4ccc(C(F)(F)F)cn4)ccc3n2)C1` [Example 589, [(3S)-3-methoxypyrrolidin-1-yl](6-{[5-(trifluoromethyl)pyridin-2-yl]oxy}quinolin-2-yl)methanone], which IC50 is on record?
Its IC50 is 4.07 µM.

`CC(O)C(C)NC(=O)c1ccc2cc(Oc3ccc(C#N)cc3)ccc2n1` (stereo not shown) [Example 134, 6-(4-cyanophenoxy)-N-(3-hydroxybutan-2-yl)quinoline-2-carboxamide] was tested. Which IC50 did it give?
Its IC50 is 2.32 µM.

With `CN(CCS(C)(=O)=O)C(=O)c1ccc2cc(Oc3ccc(C(F)(F)F)cn3)ccc2n1` [Example 611, N-methyl-N-[2-(methylsulfonyl)ethyl]-6-{[5-(trifluoromethyl)pyridin-2-yl]oxy}quinoline-2-carboxamide] as the compound, how does the IC50 read?
The IC50 was 4.99 µM.

`O=C(NC1CC2CCC(C1)N2)c1ccc2cc(Oc3ccc(C(F)(F)F)cn3)ccc2n1` (stereo not shown) [Example 267, N-(8-azabicyclo[3.2.1]oct-3-yl)-6-{[5-(trifluoromethyl)pyridin-2-yl]oxy}quinoline-2-carboxamide] was tested. Which IC50 did it give?
The IC50 was 10.2 µM.

With `O=C(NCC(=O)N1CCCC1)c1ccc2cc(Oc3ccc(C(F)(F)F)nc3)ccc2n1` [Example 513, N-[2-oxo-2-(pyrrolidin-1-yl)ethyl]-6-{[6-(trifluoromethyl)pyridin-3-yl]oxy}quinoline-2-carboxamide] as the compound, how does the IC50 read?
The IC50 was 0.911 µM.

For `CS(=O)(=O)CCCCNC(=O)c1ccc2cc(Oc3ccc(C(F)(F)F)cn3)ccc2n1` [Example 612, N-[4-(methylsulfonyl)butyl]-6-{[5-(trifluoromethyl)pyridin-2-yl]oxy}quinoline-2-carboxamide], which IC50 is on record?
Its IC50 is 2.93 µM.

For `O=C(c1ccc2cc(Oc3ccc(C(F)(F)F)cn3)ccc2n1)N1CCC[C@H](O)C1` [Example 582, [(3S)-3-hydroxypiperidin-1-yl](6-{[5-(trifluoromethyl)pyridin-2-yl]oxy}quinolin-2-yl)methanone], which IC50 is on record?
The IC50 was 10.3 µM.
